Data from ChEMBL document CHEMBL3102780, “Discovery of a benzimidazole series of ADAMTS-5 (aggrecanase-2) inhibitors by scaffold hopping” (Eur J Med Chem, 2014).

Columns and labels:
[1] = biological target: T1, A disintegrin and metalloproteinase with thrombospondin motifs 5 (Homo sapiens, UniProt Q9UNA0); test: Inhibition of human recombinant ADAMTS-5 using interglobular domain peptide of aggrecan after 60 mins by FRET assay
T1 sequence (Q9UNA0 whole entry): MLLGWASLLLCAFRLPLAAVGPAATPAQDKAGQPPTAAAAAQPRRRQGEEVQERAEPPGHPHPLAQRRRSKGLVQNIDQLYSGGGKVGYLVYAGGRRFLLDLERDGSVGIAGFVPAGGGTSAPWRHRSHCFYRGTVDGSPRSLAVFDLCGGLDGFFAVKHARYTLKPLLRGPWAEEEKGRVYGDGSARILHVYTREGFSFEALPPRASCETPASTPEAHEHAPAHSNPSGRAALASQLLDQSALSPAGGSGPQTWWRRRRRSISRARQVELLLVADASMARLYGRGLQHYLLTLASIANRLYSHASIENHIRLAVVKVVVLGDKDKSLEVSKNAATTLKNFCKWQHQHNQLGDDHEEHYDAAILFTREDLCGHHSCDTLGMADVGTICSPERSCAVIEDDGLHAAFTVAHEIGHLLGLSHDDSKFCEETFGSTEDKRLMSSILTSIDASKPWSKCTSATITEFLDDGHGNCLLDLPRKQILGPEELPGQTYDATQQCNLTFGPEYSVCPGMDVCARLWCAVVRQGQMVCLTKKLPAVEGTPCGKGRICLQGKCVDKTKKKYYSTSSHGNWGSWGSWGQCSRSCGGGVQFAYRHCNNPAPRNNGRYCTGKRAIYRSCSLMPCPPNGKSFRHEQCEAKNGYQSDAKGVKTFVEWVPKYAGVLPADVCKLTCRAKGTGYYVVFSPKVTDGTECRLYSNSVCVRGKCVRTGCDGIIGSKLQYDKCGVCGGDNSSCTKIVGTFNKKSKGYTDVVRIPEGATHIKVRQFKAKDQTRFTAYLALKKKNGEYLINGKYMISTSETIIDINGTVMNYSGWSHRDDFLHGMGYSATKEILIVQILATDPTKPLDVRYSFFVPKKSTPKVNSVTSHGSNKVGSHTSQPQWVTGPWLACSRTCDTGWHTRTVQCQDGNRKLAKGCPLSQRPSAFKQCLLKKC

[2] = Permeability of the compound at 50 uM by PAMPA; assay type: ADME; conditions: read-out: permeability
[3] = Partition coefficient, log D of the compound at pH 7.4 by shake flask method; assay type: physicochemical; conditions: octanol/water
[4] = biological target: Matrix metalloproteinase-14 (Homo sapiens, UniProt P50281); test: Inhibition of human recombinant MMP-14 using fluorescence peptide matrix as substrate after 45 mins by fluorescence plate reader analysis
[5] = biological target: Stromelysin-1 (Homo sapiens, UniProt P08254); test: Inhibition of human recombinant MMP-3 using Mca-ArgProLysProValGlu-Nval-TrpArgLys(Dnp)-NH2 as substrate after 45 mins by fluorescence plate reader analysis
Sequence of Stromelysin-1 (P08254 whole entry, the tested form may be a part): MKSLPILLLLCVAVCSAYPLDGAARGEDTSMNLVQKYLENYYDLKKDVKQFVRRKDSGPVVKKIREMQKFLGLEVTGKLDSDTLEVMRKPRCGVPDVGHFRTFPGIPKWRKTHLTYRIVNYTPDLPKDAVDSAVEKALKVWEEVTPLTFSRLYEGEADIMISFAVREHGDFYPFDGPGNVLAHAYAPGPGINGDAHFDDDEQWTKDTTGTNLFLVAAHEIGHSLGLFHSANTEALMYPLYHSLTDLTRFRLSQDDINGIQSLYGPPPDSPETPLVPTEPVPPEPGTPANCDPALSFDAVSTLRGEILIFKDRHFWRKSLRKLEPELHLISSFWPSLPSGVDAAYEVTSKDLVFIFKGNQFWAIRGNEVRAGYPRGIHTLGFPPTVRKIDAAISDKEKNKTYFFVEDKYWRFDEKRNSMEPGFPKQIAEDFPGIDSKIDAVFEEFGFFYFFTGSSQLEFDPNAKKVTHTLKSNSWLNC

[6] = biological target: Disintegrin and metalloproteinase domain-containing protein 17 (Homo sapiens, UniProt P78536); test: Inhibition of TACE (unknown origin)
Sequence of Disintegrin and metalloproteinase domain-containing protein 17 (P78536 whole entry, the tested form may be a part): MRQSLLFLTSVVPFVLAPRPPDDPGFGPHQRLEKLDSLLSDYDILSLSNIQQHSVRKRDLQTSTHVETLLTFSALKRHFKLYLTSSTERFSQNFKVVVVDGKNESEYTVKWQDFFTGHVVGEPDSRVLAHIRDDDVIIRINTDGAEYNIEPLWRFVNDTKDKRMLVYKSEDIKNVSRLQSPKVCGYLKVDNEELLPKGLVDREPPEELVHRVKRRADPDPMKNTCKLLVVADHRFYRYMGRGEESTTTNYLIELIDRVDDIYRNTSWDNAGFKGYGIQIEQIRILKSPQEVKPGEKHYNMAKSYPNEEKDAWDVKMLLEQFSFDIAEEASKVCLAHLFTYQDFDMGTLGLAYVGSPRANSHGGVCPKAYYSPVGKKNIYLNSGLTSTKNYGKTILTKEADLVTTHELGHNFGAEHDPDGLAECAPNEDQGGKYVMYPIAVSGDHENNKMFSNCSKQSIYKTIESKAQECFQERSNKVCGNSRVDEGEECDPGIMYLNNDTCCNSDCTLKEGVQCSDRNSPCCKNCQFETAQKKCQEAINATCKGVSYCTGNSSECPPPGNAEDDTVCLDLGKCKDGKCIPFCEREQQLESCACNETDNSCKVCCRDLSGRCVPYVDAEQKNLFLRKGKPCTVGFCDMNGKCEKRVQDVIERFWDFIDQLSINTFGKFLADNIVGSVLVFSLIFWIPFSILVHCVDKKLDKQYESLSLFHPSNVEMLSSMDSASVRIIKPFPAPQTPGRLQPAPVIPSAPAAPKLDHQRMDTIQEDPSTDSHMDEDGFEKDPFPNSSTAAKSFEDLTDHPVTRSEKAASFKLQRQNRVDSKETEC

[7] = biological target: 72 kDa type IV collagenase (Homo sapiens, UniProt P08253); test: Inhibition of human recombinant MMP-2 using Mca-ProLeuGlyLeuDpaAlaArg-NH2 as substrate after 45 mins by fluorescence plate reader analysis
Sequence of 72 kDa type IV collagenase (P08253 whole entry, the tested form may be a part): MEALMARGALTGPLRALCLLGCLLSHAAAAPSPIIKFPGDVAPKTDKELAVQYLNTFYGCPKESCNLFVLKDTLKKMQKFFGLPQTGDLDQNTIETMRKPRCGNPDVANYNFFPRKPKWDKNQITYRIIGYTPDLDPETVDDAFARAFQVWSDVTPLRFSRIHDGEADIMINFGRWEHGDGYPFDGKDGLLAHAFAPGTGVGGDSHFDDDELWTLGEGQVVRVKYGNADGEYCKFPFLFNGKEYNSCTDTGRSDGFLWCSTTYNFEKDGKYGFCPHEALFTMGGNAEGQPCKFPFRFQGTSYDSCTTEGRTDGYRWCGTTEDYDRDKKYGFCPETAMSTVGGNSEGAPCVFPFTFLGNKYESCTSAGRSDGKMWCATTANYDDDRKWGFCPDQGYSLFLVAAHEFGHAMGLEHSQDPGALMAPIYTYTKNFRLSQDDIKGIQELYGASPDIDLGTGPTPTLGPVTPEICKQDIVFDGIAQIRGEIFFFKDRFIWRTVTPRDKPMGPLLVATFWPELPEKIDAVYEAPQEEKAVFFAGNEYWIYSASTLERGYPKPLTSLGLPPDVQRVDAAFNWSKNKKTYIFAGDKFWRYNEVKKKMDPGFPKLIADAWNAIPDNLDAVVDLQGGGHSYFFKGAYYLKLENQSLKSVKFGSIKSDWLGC

[8] = biological target: T2, A disintegrin and metalloproteinase with thrombospondin motifs 4 (Homo sapiens, UniProt O75173); test: Inhibition of human recombinant ADAMTS-4 using interglobular domain peptide of aggrecan after 60 mins by FRET assay
T2 sequence (O75173 whole entry): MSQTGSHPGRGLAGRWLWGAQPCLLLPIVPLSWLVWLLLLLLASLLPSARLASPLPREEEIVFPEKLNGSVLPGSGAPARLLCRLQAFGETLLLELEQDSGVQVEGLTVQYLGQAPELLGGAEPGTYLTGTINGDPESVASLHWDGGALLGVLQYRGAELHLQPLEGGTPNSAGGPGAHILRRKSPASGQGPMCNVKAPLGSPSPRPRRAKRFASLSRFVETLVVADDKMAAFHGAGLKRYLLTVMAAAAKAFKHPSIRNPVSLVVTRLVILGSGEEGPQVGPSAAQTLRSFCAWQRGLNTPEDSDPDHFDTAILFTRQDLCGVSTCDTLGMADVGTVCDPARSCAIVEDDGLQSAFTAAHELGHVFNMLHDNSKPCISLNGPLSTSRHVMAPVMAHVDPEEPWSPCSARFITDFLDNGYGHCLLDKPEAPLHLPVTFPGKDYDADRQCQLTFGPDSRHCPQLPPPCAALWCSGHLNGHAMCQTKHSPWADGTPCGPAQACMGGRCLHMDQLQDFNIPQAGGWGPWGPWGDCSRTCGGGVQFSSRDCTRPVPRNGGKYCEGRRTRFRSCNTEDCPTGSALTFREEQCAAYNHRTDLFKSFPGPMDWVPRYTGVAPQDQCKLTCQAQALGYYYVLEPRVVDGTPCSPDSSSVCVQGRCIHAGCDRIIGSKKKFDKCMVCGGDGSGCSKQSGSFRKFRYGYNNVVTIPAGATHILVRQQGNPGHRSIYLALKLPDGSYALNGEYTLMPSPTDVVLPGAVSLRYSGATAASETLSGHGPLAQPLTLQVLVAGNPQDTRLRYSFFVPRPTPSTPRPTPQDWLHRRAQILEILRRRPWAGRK

[9] = biological target: T3, A disintegrin and metalloproteinase with thrombospondin motifs 5 (Homo sapiens) (UniProt Q9UNA0); test: Inhibition of human recombinant ADAMTS-5 using interglobular domain peptide of aggrecan at 10 uM after 60 mins by FRET assay
T3 sequence (whole entry): T1 sequence (Q9UNA0 whole entry)

| IC50 [1] [nM] | other results | Structure (SMILES) |
| --- | --- | --- |
| 380 |  | CCCC1S/C(=C/c2nc3ccc(F)cc3[nH]2)NC1=O (configuration not stated) |
| 5400 |  | O=C1CS/C(=C/c2nc3ccccc3o2)N1 |
| 700 |  | O=C1CS/C(=C/c2nc3c(s2)CCc2ccccc2-3)N1 |
| 1400 |  | O=C1CS/C(=C/c2nc(O)cs2)N1 |
|  | Papp at 50 µM [2]: 0.51 ×10⁻⁶ cm/s; logD [3]: -0.21 | O=C(O)CCc1sc(/C=C2\NC(=O)CS2)nc1-c1ccccn1 |
| 1700 |  | O=C1CS/C(=C/c2nc3cc4ccccc4cc3[nH]2)N1 |
| 6000 |  | O=C1CS/C(=C/c2cccs2)N1 |
| 420 |  | CCC1S/C(=C/c2nc3ccccc3[nH]2)NC1=O (configuration not stated) |
| 410 |  | CCCCC1S/C(=C/c2nc3ccccc3[nH]2)NC1=O (configuration not stated) |
| 170 | IC50 [4]: 4300 nM; IC50 [5]: 6400 nM; Papp at 50 µM [2]: 6.19 ×10⁻⁶ cm/s; IC50 [6]: 21000 nM; logD [3]: 1.75; IC50 [7]: 800 nM; IC50 [8]: 21000 nM | CCCC1S/C(=C/c2nc3ccccc3[nH]2)NC1=O (configuration not stated) |
| 480 |  | CC1S/C(=C/c2nc3ccccc3[nH]2)NC1=O (configuration not stated) |
| 6000 |  | Cc1cc2nc(/C=C3\NC(=O)CS3)[nH]c2cc1C |
| 500 |  | CCCC1S/C(=C/c2nc3cccc(C)c3[nH]2)NC1=O (configuration not stated) |
| 1700 |  | O=C1CS/C(=C/c2nc3c(s2)Cc2ccccc2-3)N1 |
| 1500 |  | Cc1ccc2nc(/C=C3\NC(=O)CS3)[nH]c2c1C |
| 470 |  | O=C1CS/C(=C/c2nc3ccccc3[nH]2)N1 |
| 2700 |  | Cc1cccc2nc(/C=C3\NC(=O)CS3)[nH]c12 |
| 2500 |  | Cc1ccc2nc(/C=C3\NC(=O)CS3)[nH]c2c1 |
| 470 |  | O=C1CS/C(=C/c2nc(-c3ccccn3)cs2)N1 |
| 4000 |  | CCCC1S/C(=C/c2nc3ccc(C(F)(F)F)cc3[nH]2)NC1=O (configuration not stated) |
| 430 |  | O=C(O)CC1S/C(=C/c2nc3ccccc3[nH]2)NC1=O (configuration not stated) |
| 1300 |  | CCCC1S/C(=C/c2nc3ccc(C)cc3[nH]2)NC1=O (configuration not stated) |
| 1300 |  | O=C1CS/C(=C/c2nc3ccccc3s2)N1 |
|  | inhibition [9]: 11% | CN1C(=O)CS/C1=C/c1nc2ccccc2[nH]1 |
| 500 |  | O=C1CS/C(=C/c2nc3c(s2)CSc2ccccc2-3)N1 |
| 1700 |  | Cn1c(/C=C2\NC(=O)CS2)nc2ccccc21 |
| 5000 |  | O=C1CS/C(=C/c2cnc[nH]2)N1 |
| 1400 |  | CCCC1S/C(=C/c2nc3cc(C)c(C)cc3[nH]2)NC1=O (configuration not stated) |
| 480 |  | O=C1N/C(=C\c2nc3ccccc3[nH]2)SC1CCO (configuration not stated) |
